Experimental findings from patent US11661426B2, “Imidazole-containing inhibitors of ALK2 kinase” (BioCryst Pharmaceuticals, Inc., priority 2017, dated 2023) are described below.

SMILES strings stand for the structures.

Chain of ALK2 (Q04771 21-509): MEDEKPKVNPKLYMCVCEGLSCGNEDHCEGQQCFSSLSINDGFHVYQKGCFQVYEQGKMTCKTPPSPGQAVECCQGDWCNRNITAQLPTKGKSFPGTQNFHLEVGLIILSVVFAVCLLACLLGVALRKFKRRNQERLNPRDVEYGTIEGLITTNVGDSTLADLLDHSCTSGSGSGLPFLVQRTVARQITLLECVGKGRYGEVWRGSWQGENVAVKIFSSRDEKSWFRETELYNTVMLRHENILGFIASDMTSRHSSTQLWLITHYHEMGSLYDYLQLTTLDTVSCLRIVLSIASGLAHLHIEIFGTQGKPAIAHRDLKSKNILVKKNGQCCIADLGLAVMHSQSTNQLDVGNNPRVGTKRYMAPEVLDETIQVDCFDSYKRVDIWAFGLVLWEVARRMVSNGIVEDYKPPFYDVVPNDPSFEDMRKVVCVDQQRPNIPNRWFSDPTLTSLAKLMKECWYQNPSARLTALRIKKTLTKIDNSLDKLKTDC

The assay concerns the target ALK2 (Homo sapiens (Human), UniProt Q04771). In words: ALK2 inhibition, LanthaScreen Eu Kinase Binding Assay (ThermoFisher Scientific / Life Technologies). The conditions noted are these: read-out: Measured Ki (IC50) Value for Compounds: IC50. How it is done: Biochemical assays to measure the inhibitory effects of the compounds were performed by ThermoFisher Scientific (Life Technologies). ALK2 inhibition was tested using LanthaScreen™ Eu Kinase Binding Assay screening protocol.
On the technique in general: TR-FRET usually uses a lanthanide donor and a delayed reading to cut background.
`COc1cc(-n2cnc(Nc3nc(N4CCC[C@H]4C(N)=O)nc4c3c(C)nn4C3CCCCO3)c2)cc(OC)c1OC` (stereo partly drawn) [Compound 401a, (2S)-1-(3-methyl-1-(tetrahydro-2H-pyran-2-yl)-4-((1-(3,4,5-trimethoxyphenyl)-1H-imidazol-4-yl)amino)-1H-pyrazolo[3,4-d]pyrimidin-6-yl)pyrrolidine-2-carboxamide]: the IC50 – broadly, the midpoint of a concentration-inhibition curve – is > 1000 nM.
With `COc1cc(-n2cnc(Nc3nc(N4CCC[C@H]4C(N)=O)nc4[nH]nc(C)c34)c2)cc(OC)c1OC` [Compound 401b, (S)-1-(3-methyl-4-((1-(3,4,5-trimethoxyphenyl)-1H-imidazol-4-yl)amino)-1H-pyrazolo[3,4-d]pyrimidin-6-yl)pyrrolidine-2-carboxamide] the figure was > 1000 nM; with `COc1cc(-n2cnc(Nc3nc(N4CCC[C@H]4CO)c4c(C)nn(C5CCCCO5)c4n3)c2)cc(OC)c1OC` (stereo partly drawn) [Compound 402b, ((2S)-1-(3-methyl-1-(tetrahydro-2H-pyran-2-yl)-6-((1-(3,4,5-trimethoxyphenyl)-1H-imidazol-4-yl)amino)-1H-pyrazolo[3,4-d]pyrimidin-4-yl)pyrrolidin-2-yl)methanol], < 100 nM.
As for `COc1cc(-n2cnc(Nc3nc(N4CCC[C@H]4CO)c4c(C)n[nH]c4n3)c2)cc(OC)c1OC` [Compound 402c, (S)-(1-(3-methyl-6-((1-(3,4,5-trimethoxyphenyl)-1H-imidazol-4-yl)amino)-1H-pyrazolo[3,4-d]pyrimidin-4-yl)pyrrolidin-2-yl)methanol], the figure is < 100 nM.
As to `COc1cc(-n2cnc(Nc3nc(N4CCC[C@H]4C(N)=O)nc4sc(CN5CCCC5)cc34)c2)cc(OC)c1OC` [Compound 403h, (S)-1-(6-(pyrrolidin-1-ylmethyl)-4-((1-(3,4,5-trimethoxyphenyl)-1H-imidazol-4-yl)amino)thieno[2,3-d]pyrimidin-2-yl)pyrrolidine-2-carboxamide], the half-maximal inhibitory concentration (IC50) is < 100 nM.
For `COc1cc(-n2cnc(Nc3nc(N4CCC[C@H]4C(N)=O)nc4sc(CN5CCC(O)CC5)cc34)c2)cc(OC)c1OC` [Compound 404b, (S)-1-(6-((4-hydroxypiperidin-1-yl)methyl)-4-((1-(3,4,5-trimethoxyphenyl)-1H-imidazol-4-yl)amino)thieno[2,3-d]pyrimidin-2-yl)pyrrolidine-2-carboxamide], the half-maximal inhibitory concentration (IC50) is < 100 nM.
As for `COc1cc(-n2cnc(Nc3nc(N4CCC[C@H]4C(N)=O)nc4sc(CN5CCN(C)CC5)cc34)c2)cc(OC)c1OC` [Compound 405b, (S)-1-(6-((4-methylpiperazin-1-yl)methyl)-4-((1-(3,4,5-trimethoxyphenyl)-1H-imidazol-4-yl)amino)thieno[2,3-d]pyrimidin-2-yl)pyrrolidine-2-carboxamide], the figure is < 100 nM; as for `COc1cc(-n2cnc(Nc3nc(N4CCC[C@H]4C(N)=O)nc4sc(CN5CCCCC5)cc34)c2)cc(OC)c1OC` [Compound 406b, (S)-1-(6-(piperidin-1-ylmethyl)-4-((1-(3,4,5-trimethoxyphenyl)-1H-imidazol-4-yl)amino)thieno[2,3-d]pyrimidin-2-yl)pyrrolidine-2-carboxamide], < 100 nM; as for `COc1cc(-n2cnc(Nc3nc(N4CCC[C@H]4C(N)=O)nc4sc(CN5CCOCC5)cc34)c2)cc(OC)c1OC` [Compound 407b, (S)-1-(6-(morpholinomethyl)-4-((1-(3,4,5-trimethoxyphenyl)-1H-imidazol-4-yl)amino)thieno[2,3-d]pyrimidin-2-yl)pyrrolidine-2-carboxamide], < 100 nM.
For `COc1cc(-n2cnc(Nc3nc(N4CCC[C@H]4C(N)=O)nc4sc(CN5CCN(c6ccccn6)CC5)cc34)c2)cc(OC)c1OC` [Compound 408b, (S)-1-(6-((4-(pyridin-2-yl)piperazin-1-yl)methyl)-4-((1-(3,4,5-trimethoxyphenyl)-1H-imidazol-4-yl)amino)thieno[2,3-d]pyrimidin-2-yl)pyrrolidine-2-carboxamide], the IC50 was < 100 nM.
With `COc1cc(-n2cnc(Nc3nc(N4CCCCC4)c4ccc(CN5CCCC5)cc4n3)c2)cc(OC)c1OC` [Compound 409e, 4-(piperidin-1-yl)-7-(pyrrolidin-1-ylmethyl)-N-(1-(3,4,5-trimethoxyphenyl)-1H-imidazol-4-yl)quinazolin-2-amine] the figure was < 100 nM; with `COc1cc(-n2cnc(Nc3nc(N4CCC[C@H]4CO)nn4c(C(=O)N5CCCCC5)ccc34)c2)cc(OC)c1OC` [Compound 410e, (S)-(2-(2-(hydroxymethyl)pyrrolidin-1-yl)-4-((1-(3,4,5-trimethoxyphenyl)-1H-imidazol-4-yl)amino)pyrrolo[2,1-f][1,2,4]triazin-7-yl)(piperidin-1-yl)methanone], < 100 nM.
Consider `COC(=O)c1cc(Nc2cn(-c3cc(OC)c(OC)c(OC)c3)cn2)c2occc2c1` [Compound 411b, methyl 7-((1-(3,4,5-trimethoxyphenyl)-1H-imidazol-4-yl)amino)benzofuran-5-carboxylate], for which the IC50 lay in the range of 100 to 1000 nM.
As for `COc1cc(-n2cnc(Nc3cc(C(=O)O)cc4ccoc34)c2)cc(OC)c1OC` [Compound 411c, 7-((1-(3,4,5-trimethoxyphenyl)-1H-imidazol-4-yl)amino)benzofuran-5-carboxylic acid], the figure is 100 to 1000 nM; as for `COc1cc(-n2cnc(Nc3cc(C(=O)N4CCC[C@H]4C(N)=O)cc4ccoc34)c2)cc(OC)c1OC` [Compound 411d, (S)-1-(7-((1-(3,4,5-trimethoxyphenyl)-1H-imidazol-4-yl)amino)benzofuran-5-carbonyl)pyrrolidine-2-carboxamide], 100 to 1000 nM; as for `COc1cc(-n2cnc(Nc3cc(C(=O)N4CCCC4)cc4ccoc34)c2)cc(OC)c1OC` [Compound 412a, pyrrolidin-1-yl(7-((1-(3,4,5-trimethoxyphenyl)-1H-imidazol-4-yl)amino)benzofuran-5-yl)methanone], 100 to 1000 nM.
With `COc1cc(-n2cnc(Nc3cc(C(=O)N4CCC[C@@H](N)C4)cc4ccoc34)c2)cc(OC)c1OC` [Compound 413b, (R)-(3-aminopiperidin-1-yl)(7-((1-(3,4,5-trimethoxyphenyl)-1H-imidazol-4-yl)amino)benzofuran-5-yl)methanone], the 50% inhibitory concentration (IC50) lay in the range of 100 to 1000 nM.
Regarding `OC[C@@H]1CCCN1c1nc(Nc2cn(-c3ccc(OC(F)(F)F)cc3)cn2)c2cccn2n1` [Compound 414d, (S)-(1-(4-((1-(4-(trifluoromethoxy)phenyl)-1H-imidazol-4-yl)amino)pyrrolo[2,1-f][1,2,4]triazin-2-yl)pyrrolidin-2-yl)methanol], the concentration for half-maximal inhibition (IC50) lay in the range of 100 to 1000 nM.
As for `COc1cc(-n2cnc(Nc3nc(N4CCC[C@H]4CO)c4cccn4n3)n2)cc(OC)c1OC` [Compound 415d, (S)-(1-(2-((1-(3,4,5-trimethoxyphenyl)-1H-1,2,4-triazol-3-yl)amino)pyrrolo[2,1-f][1,2,4]triazin-4-yl)pyrrolidin-2-yl)methanol], the half-inhibitory concentration (IC50) is 100 to 1000 nM.
For the compound `COC(=O)c1cc(OC)cc(-n2cnc(Nc3nc(N4CCC[C@H]4CO)nn4cccc34)c2)c1` [Compound 416e, (S)-methyl 3-(4-((2-(2-(hydroxymethyl)pyrrolidin-1-yl)pyrrolo[2,1-f][1,2,4]triazin-4-yl)amino)-1H-imidazol-1-yl)-5-methoxybenzoate], the IC50 is < 100 nM.
Consider `COc1cc(C(=O)N2CCC[C@H]2CO)cc(-n2cnc(Nc3nc(N4CCC[C@H]4CO)nn4cccc34)c2)c1` [Compound 416f, ((S)-2-(hydroxymethyl)pyrrolidin-1-yl)(3-(4-((2-((S)-2-(hydroxymethyl)pyrrolidin-1-yl)pyrrolo[2,1-f][1,2,4]triazin-4-yl)amino)-1H-imidazol-1-yl)-5-methoxyphenyl)methanone], for which the half-maximal inhibitory concentration (IC50) fell in the range of 100 to 1000 nM.
With `OC[C@@H]1CCCN1c1nc(Nc2cn(-c3ccc(OC(F)(F)F)c(Cl)c3)cn2)c2cccn2n1` [Compound 417e, (S)-(1-(4-((1-(3-chloro-4-(trifluoromethoxy)phenyl)-1H-imidazol-4-yl)amino)pyrrolo[2,1-f][1,2,4]triazin-2-yl)pyrrolidin-2-yl)methanol] the figure was > 1000 nM.
With `COc1cc(-c2nnc(Nc3nc(N4CCC[C@H]4CO)c4cccn4n3)o2)cc(OC)c1OC` [Compound 418b, (S)-(1-(2-((5-(3,4,5-trimethoxyphenyl)-1,3,4-oxadiazol-2-yl)amino)pyrrolo[2,1-f][1,2,4]triazin-4-yl)pyrrolidin-2-yl)methanol] the figure was > 1000 nM; with `COc1cc(-n2cnc(Nc3nc(C(=O)N4CCCC4)c4cccn4n3)c2)cc(OC)c1OC` [Compound 419b, pyrrolidin-1-yl(2-((1-(3,4,5-trimethoxyphenyl)-1H-imidazol-4-yl)amino)pyrrolo[2,1-f][1,2,4]triazin-4-yl)methanone], 100 to 1000 nM.
As for `OC[C@@H]1CCCN1c1nc(Nc2cn(-c3ccc(OC(F)(F)F)c(Br)c3)cn2)c2cccn2n1` [Compound 420e, (S)-(1-(4-((1-(3-bromo-4-(trifluoromethoxy)phenyl)-1H-imidazol-4-yl)amino)pyrrolo[2,1-f][1,2,4]triazin-2-yl)pyrrolidin-2-yl)methanol], the figure is > 1000 nM; as for `OC[C@@H]1CCCN1c1nc(Nc2cn(-c3ccncc3)cn2)c2cccn2n1` [Compound 421e, (S)-(1-(4-((1-(pyridin-4-yl)-1H-imidazol-4-yl)amino)pyrrolo[2,1-f][1,2,4]triazin-2-yl)pyrrolidin-2-yl)methanol], < 100 nM.
Consider `COc1cc(-n2cnc(Nc3nc(N4CCN(CCO)CC4)nc4sccc34)c2)cc(OC)c1OC` [Compound 422a, 2-(4-(4-((1-(3,4,5-trimethoxyphenyl)-1H-imidazol-4-yl)amino)thieno[2,3-d]pyrimidin-2-yl)piperazin-1-yl)ethanol], for which the IC50 is < 100 nM.
For `OC[C@@H]1CCCN1c1nc(Nc2cn(-c3ccc4c(c3)OCCO4)cn2)c2cccn2n1` [Compound 423e, (S)-(1-(4-((1-(2,3-dihydrobenzo[b][1,4]dioxin-6-yl)-1H-imidazol-4-yl)amino)pyrrolo[2,1-f][1,2,4]triazin-2-yl)pyrrolidin-2-yl)methanol], the IC50 lay within 100 to 1000 nM.
